According to patent publication EP0042348A1, “Olivacine derivatives and their therapeutical use” (priority 1980, dated 1981):
Read-outs that look alike come from different tables or passages of the source.

What was measured:
cellules L1210 = assay: In vitro growth inhibition of L1210 cells (48 h culture); conditions: for IC50: read-out: DI50 (Dose qui réduit de 50 % la croissance des cellules L1210); for diminution de la cytotoxicité (facteur): fold decrease on quaternisation, versus the non-quaternised base
[1] = Toxicity in mice after a single i.p. injection (maximal never-lethal dose); assay type: in vivo, souris; conditions: for DL0 (i.p.): as printed in the compound cell of the dose-response table; for DL0 (Dose maximale jamais mortelle): mice; for toxicités générales (facteur d'augmentation): change on hydroxylation at position 10 of the named parent; for augmentation de la toxicité (facteur): fold increase on quaternisation
Description: (§1) En pratique, on a utilisé des souris ayant reçu par voie intrapéritonéale un inoculum de cellules de leucémie L 1210 et ayant été, pour la moitié d'entre elles, soumises 24 heures après ladite inoculation tumorale à une injection intrapéritonéale d'une dose unique de l'un des composés à tester; l'autre moitié des souris a reçu une injection d'un volume identique d'un solvant inactif et servait de série témoin. On a réparti les souris au hasard dans chaque série expérimentale. Une première expérimentation de routine a permis de déterminer la mortalité par toxicité et de fixer ainsi les doses infra-létales.
On a ainsi pu déterminer la mortalité par toxicité sous l'effet d'une injection unique de l'un des composés à différentes doses (doses infra-létales DL 50 et DL 100) et évaluer le taux de survie du groupe d'animaux auxquels on n'avait injecté qu'une dose infra-létale d'un composé selon l'invention.
Pour l'évaluation de l'activité thérapeutique des composés selon l'invention, on a exprimé les doses desdits composés en les rapportant à la dose infra-létale 30 jours, que l'on a posée égale à 1. Cette dose infra-létale s'est en effet avérée plus facile à déterminer pour les composés de l'invention que la DL 10, dont elle est d'ailleurs très voisine et qui est habituellement prise comme référence pour l'évaluation de l'activité thérapeutique de composés à effet antitumoral (voir H.E. Skipper et coll., ouvrages cités).

leucémie L 1210 = assay: Antitumour effect in DBA/2 mice inoculated i.p. with 10^5 L1210 leukaemia cells, single i.p. injection 24 h later; assay type: in vivo, souris; conditions: for propriétés antitumorales: change on hydroxylation at position 10 of the named parent; for effet thérapeutique antitumoral: change on quaternisation; for propriétés antitumorales chez l'animal (facteur d'accroissement): fold increase on methoxylation at position 10 of the named parent
Description: as §1
Conformément à la convention en usage dans ce domaine, on considérait comme guéris les animaux qui survivaient plus de 45 jours après l'inoculation de cellules tumorales.
On a calculé le taux de survie à partir d'une analyse statistique des résultats expérimentaux, par comparaison avec les résultats obtenus avec la série témoin, selon les méthodes bien connues de Mann-Whitey et de Wilcoxon; le pourcentage de cellules leucémiques tuées par le traitement réalisé était calculé par la méthode décrite par H.E.Skipper et coll. dans les articles cités plus haut, en prenant pour base, suivant le cas, soit l'augmentation de la survie moyenne en l'absence de survivants soit le pourcentage de survivants.
[…] Après 24 heures, on a fait à une moitié de ces souris une injection unique par voie intrapéritonéale d'une dose variable du composé respectif à tester (éventuellement mis au préalable sous la forme de l'un de ses sels hydrosolubles, si nécessaire), tandis qu'on injectait par la même voie à l'autre moitié des souris un même volume de solvant; cette dernière moitié du groupe de souris servait donc de série témoin. On a réparti les souris au hasard dans chaque série expérimentale.

[2] = dose 0,01 of DL0, controls 9,3 ± 0,5 days, 15 mice
[3] = dose 0,1 of DL0, controls 9,3 ± 0,5 days, 15 mice
[4] = dose 0,01 of DL0, controls 9,7 ± 0,9 days, 10 mice
[5] = dose 0,05 of DL0, controls 9,3 ± 0,5 days, 15 mice
[6] = dose 0,5 of DL0, controls 9,3 ± 0,5 days, 15 mice
[7] = dose 0,5 of DL0, controls 9,7 ± 0,9 days, 10 mice
[8] = dose 0,8 of DL0, single i.p., ILS = T/C x 100
[9] = dose 1 of DL0, controls 9,3 ± 0,5 days, 15 mice
[10] = dose 0,005 of DL0, controls 9,3 ± 0,5 days, 15 mice
[11] = dose 0,1 of DL0, controls 9,2 days, 15 mice
[12] = dose 0,02 of DL0, controls 9,7 ± 0,9 days, 10 mice
[13] = dose 0,02 of DL0, controls 9,2 days, 15 mice
[14] = dose 0,5 of DL0, controls 9,2 days, 15 mice
[15] = dose 1 of DL0, controls 9,7 ± 0,9 days, 10 mice
[16] = dose 1 of DL0, controls 9,2 days, 15 mice
[17] = versus the non-quaternised base

CCN(CC)CC[n+]1ccc2c(C)c3[nH]c4ccc(O)cc4c3cc2c1C [4-β-diéthylaminoéthyl 10-OH olivacinium (acétate)]
IC50 (cellules L1210; Mus musculus, L1210, 48 h): 0.236 µM
DL0 (i.p.) [1]: 4-β -diéthyl-aminoéthyl 10-hydroxy olivacinium (acétate) DL0 (i.p.) = 100 mg
DL0 (Dose maximale jamais mortelle) [1]: 125 mg/kg
% de cellules tumorales tuées (leucémie L 1210; [2]): 99%
ILS (leucémie L 1210; [2]): 128%
survie moyenne en jours des souris traitées (leucémie L 1210; [2]): 11,9 ± 1,1 jours
survivants (leucémie L 1210; [2]): 0/15
% de cellules tumorales tuées (leucémie L 1210; [3]): 99,997%
ILS (leucémie L 1210; [3]): 162%
survie moyenne en jours des souris traitées (leucémie L 1210; [3]): 15,1 ± 1,4 jours
survivants (leucémie L 1210; [3]): 0/15
% de cellules tumorales tuées (leucémie L 1210; [4]): 97%
ILS (leucémie L 1210; [4]): 120%
survie moyenne en jours des souris traitées (leucémie L 1210; [4]): 11,6 ± 1,1 jours
survivants (leucémie L 1210; [4]): 0/10
% de cellules tumorales tuées (leucémie L 1210; [5]): 99,8%
ILS (leucémie L 1210; [5]): 136%
survie moyenne en jours des souris traitées (leucémie L 1210; [5]): 12,7 ± 0,4 jours
survivants (leucémie L 1210; [5]): 1/15
% de cellules tumorales tuées (leucémie L 1210; [6]): ≃99,999%
ILS (leucémie L 1210; [6]): 240%
survie moyenne en jours des souris traitées (leucémie L 1210; [6]): 22,3 ± 4,4 jours
survivants (leucémie L 1210; [6]): 1/15
% de cellules tumorales tuées (leucémie L 1210; [7]): 99,98%
ILS (leucémie L 1210; [7]): 150%
survie moyenne en jours des souris traitées (leucémie L 1210; [7]): 14,5 ± 2 jours
survivants (leucémie L 1210; [7]): 0/10
ILS (leucémie L 1210; [8]): 182%
survivants sur 15 (leucémie L 1210; dose 0,8 of DL0, single i.p., out of 15 mice): 4
% de cellules tumorales tuées (leucémie L 1210; [9]): ≃99,999%
ILS (leucémie L 1210; [9]): 182%
survie moyenne en jours des souris traitées (leucémie L 1210; [9]): 16,9 ± 3,7 jours
survivants (leucémie L 1210; [9]): 4/15
% de cellules tumorales tuées (leucémie L 1210; [10]): 99%
ILS (leucémie L 1210; [10]): 127%
survie moyenne en jours des souris traitées (leucémie L 1210; [10]): 11,8 ± 0,8 jours
survivants (leucémie L 1210; [10]): 0/15

Cc1nccc2c(C)c3[nH]c4ccc(O)cc4c3cc12 [10-hydroxy olivacine (acétate)]
DL0 (i.p.) [1]: 10-hydroxy olivacine (acétate) DL0(i.p.) = 50 mg
ILS (leucémie L 1210; [11]): non significatif
survie moyenne en jours des souris traitées (leucémie L 1210; [11]): 10,9 jours
survivants (leucémie L 1210; [11]): 0/15
ILS (leucémie L 1210; [12]): non significatif
survie moyenne en jours des souris traitées (leucémie L 1210; [12]): 10,5 ± 0,8 jours
survivants (leucémie L 1210; [12]): 0/10
ILS (leucémie L 1210; [13]): non significatif
survie moyenne en jours des souris traitées (leucémie L 1210; [13]): 9,6 jours
survivants (leucémie L 1210; [13]): 0/15
ILS (leucémie L 1210; [14]): non significatif
survie moyenne en jours des souris traitées (leucémie L 1210; [14]): 12,1 jours
survivants (leucémie L 1210; [14]): 0/15
% de cellules tumorales tuées (leucémie L 1210; [15]): 98,98%
ILS (leucémie L 1210; [15]): 148%
survie moyenne en jours des souris traitées (leucémie L 1210; [15]): 14,4 ± 1,3 jours
survivants (leucémie L 1210; [15]): 2/10
ILS (leucémie L 1210; [16]): non significatif
survie moyenne en jours des souris traitées (leucémie L 1210; [16]): 11,8 jours
survivants (leucémie L 1210; [16]): 0/15

Cc1nccc2c(C)c3[nH]c4ccc(O)cc4c3cc12 [10-hydroxy olivacine]
IC50 (cellules L1210; Mus musculus, L1210, 48 h): 0.02 µM
DL0 (Dose maximale jamais mortelle) [1]: 50 mg/kg
ILS (leucémie L 1210; [8]): 139%

COc1ccc2[nH]c3c(C)c4ccnc(C)c4cc3c2c1 [10-méthoxy olivacine, reference compound]
IC50 (cellules L1210; Mus musculus, L1210, 48 h): 1.09 µM
DL0 (Dose maximale jamais mortelle) [1]: 150 mg/kg
ILS (leucémie L 1210; dose 0,66 of DL0, single i.p., ILS = T/C x 100): 147%

Cc1nccc2c(C)c3[nH]c4ccccc4c3cc12 [olivacine]
toxicités générales (facteur d'augmentation) [1]: 5
propriétés antitumorales (leucémie L 1210): ne modifie que peu
effet thérapeutique antitumoral (leucémie L 1210): disparition de l'effet thérapeutique antitumoral
propriétés antitumorales chez l'animal (facteur d'accroissement) (leucémie L 1210): 1,3

Acétate de 4-méthyl 10-hydroxy olivacinium
diminution de la cytotoxicité (facteur) (cellules L1210): 28,1
diminution de la cytotoxicité (facteur) (cellules L1210; listed as 10-hydroxy olivacine quaternarisée): ~30
IC50 (cellules L1210; L1210 cells, versus controls, after 48 h of culture): 0.562 µM
diminution de la toxicité (facteur) ([1]; fold decrease on quaternisation, versus the non-quaternised base): 2
DL0 (Dose maximale jamais mortelle) [1]: 100 mg/kg
effet thérapeutique antitumoral (leucémie L 1210): n'est pas modifiée
ILS (leucémie L 1210; dose 1 of DL0, single i.p., ILS = T/C x 100): 155%

Acétate de 4-méthyl 10-méthoxy olivacinium
diminution de la cytotoxicité (facteur) (cellules L1210): 1,3
augmentation de la toxicité (facteur) [1, 17]: 1,5

Acétate de 4-méthyl olivacinium
diminution de la cytotoxicité (facteur) (cellules L1210): 1,4
augmentation de la cytotoxicité (facteur) (cellules L1210; fold increase on hydroxylation at position 10 of the named parent): 4
toxicités générales (facteur d'augmentation) [1]: ne varient pas
augmentation de la toxicité (facteur) [1, 17]: 3,3
propriétés antitumorales (leucémie L 1210): fait par contre apparaître des propriétés antitumorales
propriétés antitumorales chez l'animal (facteur d'accroissement) (leucémie L 1210): 1,7
